Test results as given in patent publication US9248163B2, “Insulin-like growth factor binding protein 7 for treatment of cancer” (University of Massachusetts, priority 2007, dated 2016).

Tests used:
primary melanocytes = assay: Proliferation assay of primary melanocytes (trypan blue exclusion); format: cell-based, human; conditions: 14 days after treatment
Procedure: (§1) For the proliferation assay shown in FIG. 1B, 1×10^4 cells stably expressing an shRNA were cultured in 12-well plate format, infected with BRAFV600E-expressing retrovirus and after 14 days stained with crystal violet. For all other quantitative proliferation assays, cell viability was measured by trypan blue exclusion test at the time point indicated in the relevant figure legend. Values were expressed as percent cell growth, as described in the relevant figure legend. For the proliferation assays shown in FIG. 2A, CM was replenished every 3 days, and proliferation was measured after a total of 14 days of CM treatment. Unless otherwise stated, rIGFBP7 was added to the culture medium at a concentration of 10 μg/ml.
To confirm that IGFBP7 could block cellular proliferation, purified recombinant IGFBP7 (rIGFBP7) was purified from baculovirus-infected insect cells. […] Collectively, the results of FIGS. 2A-2D indicate that following expression of BRAFV600E, melanocytes synthesize and secrete increased amounts of IGFBP7, which then acts through an autocrine/paracrine pathway to induce senescence.

[1] = test system: human melanoma cell lines; assay: Proliferation assay of human melanoma cell lines; format: cell-based; conditions: 24 hours, 10 μg/ml
Procedure: as §1
Next, the ability of IGFBP7 to block cellular proliferation in a panel of human melanoma cell lines was analyzed. The cells contained either an activating BRAF mutation (BRAFV600E; SK-MEL-28, MALME-3M, WM793B, WM39 and WM278), an activating RAS mutation (RASQ61R; SK-MEL-2, SK-MEL-103, and WM1366), or were wild type for both BRAF and RAS (CHL, SK-MEL-31, WM1321 and WM3211). For each cell line, the presence of IGFBP7 in the CM was determined by immunoblot analysis (FIG. 3A), and sensitivity to IGFBP7-induced growth inhibition was measured in a proliferation assay (FIG. 3B). The results reveal a striking inverse correlation between IGFBP7 expression and sensitivity to IGFBP7-mediated growth inhibition that correlates with the status of BRAF or RAS.

[2] = test system: human melanoma cell lines; assay: Apoptosis assay (Annexin V-PE) in melanoma cells; format: cell-based
Procedure: PFF fibroblasts or melanocytes or shRNA knockdown derivatives (5×10^5 cells) were infected with BRAFV600E-expressing retrovirus, and 4 days later the total cell population was stained for Annexin V-PE (BD Biosciences). To monitor apoptosis in melanoma cells following rIGFBP7 treatment, 5×10^5 cells were treated with rIGFBP7 (10 μg/ml) for 24 hours and stained for Annexin V-PE.
Finally, it was determined whether apoptosis was dependent upon the continual presence of rIGFBP7 or was irreversible following transient exposure to rIGFBP7. SK-MEL-28 cells were incubated with rIGFBP7 for various lengths of time, following which the cells were washed and cultured in medium lacking rIGFBP7, and apoptosis was quantitated after 24 hours. The results, shown in FIG. 3H, indicate that following 6 hours of incubation with rIGFBP7, the cells were irreversibly committed to apoptosis, which occurred even following removal of rIGFBP7.

SK-MEL-28 cells = assay: Immunoblot analysis of SMARCB1, BNIP3L and activated caspase 3; format: cell-based, human; conditions: 10 μg/ml
Procedure: To prepare cell extracts, cells were lysed in Laemmli buffer; for phospho-proteins, cells were lysed in the presence of a phosphatase inhibitor cocktail (Sigma). To prepare conditioned media, cells were grown in Opti-MEM™ (Invitrogen) for 24 hours, and media was harvested and concentrated using Centricon™ plus 20 tubes (Millipore). Conditioned media was normalized to cell number prior to loading the gel. For the experiments shown in FIGS. 3D and 4C, rIGFBP7 was added to the culture medium at a concentration of 10 μg/ml. For the MEK/RAF inhibitor experiment of FIG. 4D, SK-MEL-28 cells were treated with 2 μg/ml or 10 μg/ml rIGFBP7, 20 μM or 40 μM of the MEK inhibitor PD98054 (Calbiochem), or 5 nM or 10 nM the RAF inhibitor GW5074 (Sigma) for 24 hours prior to harvesting cells. Proteins were resolved by SDS-PAGE and transferred to nitrocellulose. Blots were probed with the following antibodies: α-p16 (Abcam), α-acetylated H3K9 (Upstate), α-IGFBP7 (Santa Cruz), α-SMARCB1 (Abnova), α-BNIP3L (Proscience), α-BRAFV600E (Santa Cruz), α-cleaved caspase-3 p11 (Santa Cruz), α-β-actin (Sigma), α-phospho-ERK (Cell Signaling) or α-ERK (Cell Signaling).

[3] = test system: A375(Fluc-IRES-GFP) cells; assay: Pulmonary metastasis model, A375(Fluc-IRES-GFP) cells by tail vein injection
Source text: For these experiments, A375(Fluc-IRES-GFP) cells were used, which are a highly metastatic, BRAF-positive human melanoma cell line stably expressing an Fluc-IRES-GFP reporter construct (where Fluc is the firefly luciferase gene, IRES is an internal ribosomal entry site and GFP is green fluorescent protein) (Collisson et al., 2003, Cancer Res., 63:5669-5673). The presence of Fluc-IRES-GFP enables tumor growth to be quantified over time in live animals by serial bioluminescent optical imaging.
Two treatment regimens were tested. In one set of experiments, administration of IGFBP7 was initiated 3 days after injection of A375-Fluc cells, at which time metastatic disease would be significant (FIG. 12A). In these experiments, 7×10^5 A375(Fluc-IRES-GFP) cells were injected into the tail vein of 10 athymic Balb/c (nu/nu) mice (Taconic). At days 3, 6 and 9, mice were injected via the tail vein with either 100 μg purified, recombinant IGFBP7 (n=5 mice) or, as a control, phosphate buffered saline (PBS) (n=5 mice). On day 6, mice were analyzed for quantitation of metastatic tumor burden by using a Xenogen brand bioluminescent imaging system. […] Mice were monitored daily for viability over 30 days, and the ability of systemically administered IGFBP7 to suppress metastatic disease was assessed by survival assays (Kaplan-Meier analysis).
In a second set of experiments, administration of IGFBP7 was initiated both before and shortly after injection of A375(Fluc-IRES-GFP) cells, to test the ability of IGFBP7 to function prophylactically to prevent metastasis and/or treat early metastatic disease (FIG. 13A). In these experiments, 100 μg purified, recombinant IGFBP7 (or, as a control, PBS) was injected into the tail vein of mice (n=5 mice for each group). One day later, mice were injected with 7×10^5 A375(Fluc-IRES-GFP) cells, followed by injection of 100 μg on days 3 and 6. Mice were monitored daily for viability over 30 days, and the ability of systemically administered IGFBP7 to suppress metastatic disease was assessed by survival assays (Kaplan-Meier analysis).

rIGFBP7: purified recombinant human IGFBP7, C-terminal Flag-tagged, from baculovirus-infected Sf9 insect cells
proliferation of primary melanocytes (primary melanocytes): blocked proliferation of primary melanocytes in a dose-dependent manner | sensitivity to IGFBP7-mediated growth inhibition ([1]; cells with wild type BRAF and RAS): relatively insensitive | sensitivity to IGFBP7-mediated growth inhibition ([1]; melanoma cell lines with activating BRAF mutation (BRAFV600E)): highly sensitive | sensitivity to IGFBP7-mediated growth inhibition ([1]; melanoma cell lines with activating RAS mutation (RASQ61R)): partially sensitive | incubation time after which cells were irreversibly committed to apoptosis ([2]; SK-MEL-28 cells, washed, apoptosis quantitated after 24 hours): 6 h | surviving senescent cells ([2]; melanoma cell lines with activating BRAF mutation): undetectable | apoptosis ([2]; melanoma cell lines with activating BRAF mutation, 10 μg/ml, 24 hours): strongly induced apoptosis | apoptosis by caspase 3 activation (SK-MEL-28 cells): apoptosis occurred as evidenced by caspase 3 activation | expression of SMARCB1 and BNIP3L (SK-MEL-28 cells): significantly increased | survival (Kaplan-Meier) ([3]; 100 μg one day before cell injection and on days 3 and 6, PBS mice died within 18 days): still viable at day 30 | survival (Kaplan-Meier) ([3]; 100 μg tail vein at days 3, 6 and 9 after cell injection, control mice died at 20 days): still viable at day 30 | lung metastasis by bioluminescent imaging ([3]; 100 μg tail vein from day 3, imaged on day 6): no evidence of lung metastasis
